{"source": "patent US20110151484A1", "about": "“hERG MUTANTS AND USES THEREOF” (priority 2008, published 2011)", "key": {"N588K-hERG": {"biological_target": "N588K-hERG (Homo sapiens, UniProt Q12809, N588K)", "experimental": "Currents were measured with a two-step voltage protocol; a first step to +20 mV for 3 seconds to fully activate the channels and a second step to a negative membrane potential, usually −110 mV (but see below for variations). […]"}, "WT-hERG": {"biological_target": "WT-hERG (Homo sapiens, UniProt Q12809)", "procedure": "(§1) CHO cells were cultured in D-ME/F12 with 10% FBS and maintained at 37° C. in 5% CO2. Cells were studied at least 24 h after being plated on microscope coverslips. Mutant hERG constructs were generated using the Megaprimer PCR method. […] Blank CHO cells were plated onto sterilised glass coverslips. After 24 h, the cells were transfected with mutant hERG constructs using PolyFect Transfection Reagent (Qiagen) according to the manufacturer's instructions. After transfection, the cells were incubated at 37° C. for a minimum of 1 day prior to electrophysiological study. Successfully transfected cells, identified by the expression of eGFP, were studied using the whole-cell configuration of the patch clamp technique.\n(§2) Borosilicate glass tubing patch pipettes, with resistances of 1-4 MΩ when filled with internal solution, were made using a vertical 2-stage puller (PP-830; Narishige, Japan). The internal solution contained (in mM) 120 potassium gluconate, 20 KCl, 1.5 MgATP, 5 EGTA and 10 HEPES (pH 7.3 with KOH). […] Currents were amplified (Axopatch 200B amplifier; Molecular Devices, Sunnyvale, Calif.) and digitised (DigiData 1200; Molecular Devices) before storage on a personal computer. Capacitance current transients were electronically subtracted, and series resistance compensation was ˜80% for all experiments. Current signals were digitised at 5 kHz and low-pass filtered at 2 KHz. Some current traces were leak-subtracted off-line. Acquisition was performed using pClamp software.\n(§3) Currents were measured with a two-step voltage protocol; a first step to +20 mV for 3 seconds to fully activate the channels and a second step to a negative membrane potential, usually −110 mV (but see below for variations). During this second voltage step hERG channels quickly recover from inactivation and proceed to deactivate.\n(§4) Drug block was calculated as I[drug]/Icontrol, with all currents measured at the end of the activating step. […] In this way current was measured at the same time point for all cells.\n(§5) Voltage-protocols were repeated at 0.1 Hz. Control currents were recorded 3-5 minutes after patch rupture, i.e. the time take for current levels to stabilise at a steady state level. […] Recording continued until a new steady state block was reached (typically 2-4 minutes). Between 2 and 4 doses of drug were applied to each cell with most experiments completed within 20 minutes.\n(§6) Initial data analysis was performed using the Clampfit module of the pClamp 9.0 software. Subsequent data analysis and preparation of data for figures were performed with Mathematica 6 (Wolfram Technologies). All data are expressed as mean ±SEM (n) and statistical significance (P<0.05) was determined using paired t-tests."}, "N588E-hERG": {"biological_target": "N588E-hERG (Homo sapiens, UniProt Q12809, N588E)", "procedure": "as §1, §2, §3, §4, §5, §6"}}, "note": "Like-named read-outs stand apart in the source and are kept apart here.", "data": [{"smiles": "CC(C)NCC(O)c1ccc(NS(C)(=O)=O)cc1", "note": "(racemic) [dl-Sotalol]", "values": [{"measurement": "IC50", "setting": "N588K-hERG", "result": "1390 ± 266", "unit": "µM"}, {"measurement": "IC50", "setting": "WT-hERG", "result": "516 ± 35.5", "unit": "µM"}, {"measurement": "h (Hill plot), WT-hERG", "setting": "WT-hERG", "result": "h = 0.9"}, {"measurement": "IC50", "setting": "N588E-hERG", "result": "586 ± 179", "unit": "µM"}, {"measurement": "h (Hill plot), N588E", "setting": "N588E-hERG", "result": "h = 0.8"}]}, {"smiles": "COc1cc(N)c(Cl)cc1C(=O)NC1CCN(CCCOc2ccc(F)cc2)CC1OC", "note": "(stereo not drawn) [Cisapride]", "values": [{"measurement": "h (Hill plot), WT-hERG", "setting": "WT-hERG; human", "result": "h = 1.0"}, {"measurement": "h (Hill plot), N588E", "setting": "N588E-hERG; human", "result": "h = 0.8"}]}, {"smiles": "C1CCC(C(CC2CCCCN2)C2CCCCC2)CC1", "note": "(stereo not drawn) [Perhexiline]", "values": [{"measurement": "h (Hill plot), WT-hERG", "setting": "WT-hERG; human", "result": "h = 1.1"}, {"measurement": "h (Hill plot), N588E", "setting": "N588E-hERG; human", "result": "h = 0.8"}]}]}
